Data from patent publication US20120010206A1, “IMIDAZOLOPYRIDINE COMPOUNDS USEFUL FOR THE TREATMENT OF DEGENERATIVE AND INFLAMMATORY DISEASES” (priority 2006, published 2012).

Molecular target: T1, TAK1-TAB1 fusion protein (Homo sapiens, UniProt O43318)
T1 construct: purchased Upstate 14-600
T1 sequence (O43318 with tags, fused parts or gaps limits assumed): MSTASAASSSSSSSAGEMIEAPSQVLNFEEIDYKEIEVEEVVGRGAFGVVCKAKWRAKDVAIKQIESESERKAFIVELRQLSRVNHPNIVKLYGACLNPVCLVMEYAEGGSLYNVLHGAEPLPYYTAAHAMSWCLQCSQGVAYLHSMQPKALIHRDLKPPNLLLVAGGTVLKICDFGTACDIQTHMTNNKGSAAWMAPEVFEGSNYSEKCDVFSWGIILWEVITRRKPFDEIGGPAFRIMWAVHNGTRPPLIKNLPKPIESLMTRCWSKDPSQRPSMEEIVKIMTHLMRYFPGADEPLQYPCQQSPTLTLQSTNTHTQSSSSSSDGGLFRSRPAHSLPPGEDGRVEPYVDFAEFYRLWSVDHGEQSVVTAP
Assay: In vitro TAK1 kinase assay (33P-ATP, casein substrate)
Format: biochemical
Settings: semi-quantitative score, at least two independent experiments
Protocol: For assessing TAK1 inhibition, active TAK1-TAB1 fusion protein was used from Upstate (Cat. No, 14-600). Kinase reactions are set up in 96-well polypropylene plates in 25 μL containing 0.5 mU TAK1-TAB1 fusion protein, […], 0.01 μCi/μL [^33P]-γ-ATP, 0.1 mg/mL casein substrate in 1× reaction buffer containing 10 mM MOPS pH 7.0, 1 mM EDTA.
Starting from the compound master stocks (all at 10 mM concentration in 100% DMSO) a 3-fold serial dilution is made in 96-well plates in 100% DMSO. Plates are further diluted […] in H2O containing 3.5% DMSO, to obtain an intermediate work stock with compounds at 5× the final assay concentration in 5% DMSO.
5 μL of the intermediate stock is transferred into V-bottom 96 well polypropylene plates and 11 μL of Enzyme mix is added. Enzyme mix is made by combining 5 μL 5× reaction buffer ([…] pH 7.0, 1 mM EDTA), 5 μL casein (Sigma) diluted in H2O to 0.5 mg/mL and 1 μL of TAK1-TAB1 fusion protein that was prediluted to 0.5 mU/μL in 1× enzyme dilution buffer (20 mM MOPS pH 7.0, 0.1 mM EDTA, 0.01% Brij-35, 5% glycerol, 1 mM DTT, 1 mg/ml BSA).
The reactions are started by the addition of 9 μL of mixture containing ATP (20.83 uM) and [^33P]-γ-ATP (0.028 μCi/μL).
The assay is stopped 90 minutes after incubation at 30° C. by the addition of 25 μL phosphoric acid (150 mM). The label incorporated into the casein substrate is separated from labeled unincorporated ATP by filtration onto 96-well filter plates using a harvester device. After 6 washes with 75 mM phosphoric acid, the bottom of the filter plates are sealed, and incorporated label is quantified after addition of 40 μL scintillation fluid using TopCount.
Based on these percent inhibition data obtained in at least two independent experiments for the compounds, compounds are ranked using semi-quantitative scores. Table A below lists a number of compounds which have been or can be prepared according to the synthetic methods described herein. Semi-quantitative score: • *>3001 nM • ** 1001-3000 nM • *** 101-1000 nM • ****<100 nM

Row | Structure (SMILES) | IC50
1 | O=C(NCc1cccc(-n2cccc2)c1)c1ccc(Nc2ccc(-c3ccc4c(c3)CNC4=O)n3ccnc23)cc1 [Compound 35, 4-[5-(1-Oxo-2,3-dihydro-1H-isoindol-5-yl)-imidazo[1,2-a]pyridin-8-ylamino]-N-(3-pyrrol-1-yl-benzyl)-benzamide] | 101 to 1000 nM
2 | c1cn2c(-c3cn[nH]c3)ccc(Nc3ccc(N4CCC(N5CCCCC5)CC4)cc3)c2n1 [Compound 119, (4[1,4′]Bipiperidinyl-1′-yl-phenyl)-[5-(1H-pyrazol-4-yl)-imidazo[1,2-a]pyridin-8-yl]-amine] | 101 to 1000 nM
3 | CC1CCN(C2CCN(C(=O)c3ccc(Nc4ccc(-c5ccc6c(c5)CNC6=O)n5ccnc45)cc3)CC2)CC1 [Compound 55, 5-{8-[4-(4-Methyl-[1,4′]bipiperidinyl-1′-carbonyl)-phenylamino]-imidazo [1,2-a]pyridin-5-yl}-2,3-dihydro-isoindol-1-one] | 101 to 1000 nM
4 | O=c1cc(-c2ccc(Nc3ccc(N4CCN5CCCCC5C4)cc3)c3nccn23)cc[nH]1 (stereo not shown) [Compound 114, 4-{8′-[4-(Octahydro-pyrido[1,2-a]pyrazin-2-yl)-phenylamino]-imidazo[1,2-a]pyridin-5-yl}-1H-pyridin-2-one] | 101 to 1000 nM
5 | C[C@@H]1CN(c2ccc(Nc3ccc(-c4cc[nH]c(=O)c4)n4ccnc34)cc2)C[C@H](C)N1C [Compound 98] | 101 to 1000 nM
6 | O=C(c1ccc(Nc2ccc(-c3cc[nH]c(=O)c3)n3ccnc23)cc1)N1CCC(N2CCCCC2)CC1 [Compound 102] | < 100 nM
7 | CC1CCN(C2CCN(c3ccc(Nc4ccc(-c5cc[nH]c(=O)c5)n5ccnc45)cc3)CC2)CC1 [Compound 121, 4-{8-[4-(4-Methyl-[1,4′]bipiperidinyl-1′-yl)-phenylamino]-imidazo[1,2-a]pyridin-5-yl}-1H-pyridin-2-one] | 101 to 1000 nM
8 | C[C@@H]1CN(c2ccc(Nc3ccc(-c4cc[nH]c(=O)c4)n4ccnc34)cc2)C[C@H](C)O1 [Compound 113, 4-{8-[4-((2R,6S)-2,6-Dimethyl-morpholin-4-yl)-phenylamino)-imidazo[1,2-a]pyridin-5-yl}-1H-pyridin-2-one] | 1000 to 3000 nM
9 | C[C@@H]1CN(C)[C@@H](C)CN1c1ccc(Nc2ccc(-c3cc[nH]c(=O)c3)n3ccnc23)cc1 [Compound 99] | 101 to 1000 nM
10 | CC(C)N1CCN(c2ccc(Nc3ccc(-c4cc[nH]c(=O)c4)n4ccnc34)cc2Cl)CC1 [Compound 105] | 101 to 1000 nM
11 | C[C@@H]1CN(c2ccc(Nc3ccc(-c4cc[nH]c(=O)c4)n4ccnc34)cc2F)C[C@H](C)N1C [Compound 101] | 101 to 1000 nM
12 | CCN1CCN(c2ccc(Nc3ccc(-c4cc[nH]c(=O)c4)n4ccnc34)cc2Cl)CC1 [Compound 104] | 101 to 1000 nM
13 | CC1CCCN(C2CCN(c3ccc(Nc4ccc(-c5cc[nH]c(=O)c5)n5ccnc45)cc3)CC2)C1 (stereo not shown) [Compound 122, 4-{8-[4-(3-Methyl-[1,4′]bipiperidinyl-1′-yl)-phenylamino]-imidazo[1,2-a]pyridin-5-yl}-1H-pyridin-2-one] | 101 to 1000 nM
14 | O=c1cc(-c2ccc(Nc3ccc(C4CCNCC4)cc3)c3nccn23)cc[nH]1 [Compound 100] | 101 to 1000 nM
15 | O=c1cc(-c2ccc(Nc3ccc(N4CCC(N5CCC(O)CC5)CC4)cc3)c3nccn23)cc[nH]1 [Compound 123, 4-{8-[4-(4-Hydroxy-[1,4′]bipiperidinyl-1′-yl)-phenylamino]-imidazo[1,2-a]pyridin-5-yl}-1H-pyridin-2-one] | 1000 to 3000 nM
16 | CC(=O)NCCNC(=O)c1ccc(Nc2ccc(-c3ccc4c(c3)CNC4=O)n3ccnc23)cc1 [Compound 57, N-(2-acetamidoethyl)-4-(5-(1-oxoisoindolin-5-yl)imidazo[1,2-a]pyridin-8-ylamino)benzamide] | 101 to 1000 nM

Row | Structure (SMILES) | IC50
17 | O=C(NCCN1CCCCC1)c1ccc(Nc2ccc(-c3ccc4c(c3)CNC4=O)n3ccnc23)cc1 [Compound 56, 4-(5-(1-oxoisoindolin-5-yl)imidazo[1,2-a]pyridin-8-ylamino)-N-(2-(piperidin-1-yl)ethyl)benzamide] | 101 to 1000 nM
18 | CC(C)N1CCN(c2ccc(Nc3ccc(-c4ccc(O)c(F)c4)n4ccnc34)cc2)CC1 [Compound 93] | 1000 to 3000 nM
19 | C[C@@H]1CN(C)[C@@H](C)CN1c1ccc(Nc2ccc(-c3cc[nH]c(=O)c3)n3ccnc23)cc1F [Compound 97] | 101 to 1000 nM
20 | O=C1NCc2cc(-c3ccc(Nc4ccc(-n5cncn5)cc4)c4nccn34)ccc21 [Compound 31, 5-(8-(4-(1H-1,2,4-triazol-1-yl)phenylamino)imidazo[1,2-a]pyridin-5-yl)isoindolin-1-one] | 101 to 1000 nM
21 | O=C1NCc2cc(-c3ccc(Nc4ccc(-n5cccn5)cc4)c4nccn34)ccc21 [Compound 30, 5-(8-(4-(1H-pyrazol-1-yl)phenylamino)imidazo[1,2-a]pyridin-5-yl)isoindolin-1-one] | 1000 to 3000 nM
22 | CC1CCCN(C2CCN(C(=O)c3ccc(Nc4ccc(-c5ccc6c(c5)CNC6=O)n5ccnc45)cc3)CC2)C1 (stereo not shown) [Compound 54, 5-{8-[4-(3-Methyl-[1,4′]bipiperidinyl-1′-carbonyl)-phenylamino]-imidazo [1,2-a]pyridin-5-yl}-2,3-dihydro-isoindol-1-one] | 101 to 1000 nM
23 | CC(C)N1CCN(c2ccc(Nc3ccc(-c4cc[nH]c(=O)c4)n4ccnc34)cc2F)CC1 [Compound 103] | 101 to 1000 nM
24 | COCCNC(=O)c1ccc(Nc2ccc(-c3ccc4c(c3)CNC4=O)n3ccnc23)cc1 [Compound 58, N-(2-methoxyethyl)-4-(5-(1-oxoisoindolin-5-yl)imidazo[1,2-a]pyridin-8-ylamino)benzamide] | 101 to 1000 nM
25 | O=c1cc(-c2ccc(Nc3ccc(N4CCCCC4)cc3)c3nccn23)cc[nH]1 [Compound 115, 4-[8-(4-Piperidin-1-yl-phenylamino)-imidazo[1,2-a]pyridin-5-yl]-1H-pyridin-2-one] | 1000 to 3000 nM
26 | O=c1cc(-c2ccc(Nc3ccc(N4CCC(F)CC4)cc3)c3nccn23)cc[nH]1 [Compound 116, 4-{8-[4-(4-Fluoro-piperidin-1-yl)-phenylamino]-imidazo[1,2-a]pyridin-5-yl}-1H-pyridin-2-one] | 1000 to 3000 nM
27 | O=c1cc(-c2ccc(Nc3ccc(N4CCCC4)c(Cl)c3)c3nccn23)cc[nH]1 [Compound 125, 4-[8-(3-Chloro-4-pyrrolidin-1-yl-phenylamino)-imidazo[1,2-a]pyridin-5-yl]-1H-pyridin-2-one] | > 3000 nM
28 | O=c1cc(-c2ccc(Nc3ccc(N4CCN(CC(F)F)CC4)cc3)c3nccn23)cc[nH]1 [Compound 110, 4-(8-{4-[4-(2,2-Difluoro-ethyl)-piperazin-1-yl]-phenylamino}-imidazo[1,2-a]pyridin-5-yl)-1H-pyridin-2-one] | > 3000 nM
29 | O=c1cc(-c2ccc(Nc3ccc(N4CCS(=O)(=O)CC4)cc3)c3nccn23)cc[nH]1 [Compound 112, 4-{8-[4-(1,1-Dioxo-1lambda*6*- thiomorpholin-4-yl)-phenylamino]-imidazo[1,2-a]pyridin-5-yl}-1H-pyridin-2-one] | > 3000 nM
30 | O=c1cc(-c2ccc(Nc3ccc(N4CCCC(F)(F)C4)cc3)c3nccn23)cc[nH]1 [Compound 118, 4-{8-[4-(3,3-Difluoro-piperidin-1-yl)-phenylamino]-imidazo[1,2a]pyridin-5-yl}-1H-pyridin-2-one] | > 3000 nM
31 | O=c1cc(-c2ccc(Nc3ccc(N4CCC(F)(F)CC4)cc3)c3nccn23)cc[nH]1 [Compound 117, 4-{8-[4-(4,4-Difluoro-piperidin-1-yl)-phenylamino]-imidazo[1,2-a]pyridin-5-yl}-1H-pyridin-2-one] | > 3000 nM
